Measured values taken from US8242145B2, “Cyclic diaryl ether compounds as antagonists of prostaglandin D2 receptors” (Panmira Pharmaceuticals, LLC, priority 2008, dated 2012).

Legend:
[1] = molecular target: T1, recombinant human CRTH2 receptor (Homo sapiens, UniProt Q9Y5Y4); test: GTPγS binding assay; assay type: biochemical; settings: +HSA; read-out: hDP2 GTPγS μM (+HSA)
T1 construct: expressed in transfected cells
T1 sequence (Q9Y5Y4 1-395): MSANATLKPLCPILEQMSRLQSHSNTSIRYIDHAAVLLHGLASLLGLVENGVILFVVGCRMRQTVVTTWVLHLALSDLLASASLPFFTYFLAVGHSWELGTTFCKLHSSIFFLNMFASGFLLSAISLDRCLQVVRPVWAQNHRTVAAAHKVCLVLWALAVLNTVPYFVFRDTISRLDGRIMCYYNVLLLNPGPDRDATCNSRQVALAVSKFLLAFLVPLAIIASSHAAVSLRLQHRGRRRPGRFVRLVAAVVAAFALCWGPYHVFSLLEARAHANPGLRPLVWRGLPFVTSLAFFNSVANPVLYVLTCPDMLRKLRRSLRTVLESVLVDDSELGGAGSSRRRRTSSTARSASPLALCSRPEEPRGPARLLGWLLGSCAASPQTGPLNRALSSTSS
Protocol: The ability of a compound to inhibit binding of GTP to DP2 is assessed via a membrane GTPγS assay. CHO cells stably expressing the recombinant human CRTH2 receptor are resuspended in 10 mM Hepes, 7.4 containing 1 mM DTT, lysed and centrifuged at 75,000×g to pellet the membranes. The membranes are resuspended in 10 mM Hepes, 7.4 containing 1 mM DTT and 10% glycerol. Membranes (˜12.5 μg per well) are incubated in 96-well plates with 0.05 nM [^35S]-GTPγS, 80 nM PGD2, 5 μM GDP, and test compound in Assay Buffer (50 mM Hepes, pH 7.4, 100 mM NaCl, 5 mM MgCl2 and 0.2% human serum albumin) for 60 minutes at 30° C. The reactions are terminated by rapid filtration through Whatman GF/B glass fibre filter plates. The filter plates are washed 3 times with 1 ml cold Assay Buffer and dried. Scintillant is then added to the plates and the radioactivity retained on the filters is determined on a Packard TopCount (Perkin Elmer). Specific binding is determined as total radioactive binding minus non-specific binding in the absence of the ligand (80 nM PGD2). IC50s were determined using Graphpad prism analysis of drug titration curves.

[2] = molecular target: T2, human DP1 receptor (Homo sapiens, UniProt Q13258); test: DP1 radioligand binding assay using [3H]BWA868C; settings: hDP1 binding
T2 construct: tissue Biological Specialty Corporation; host or cells: human platelets, membranes
T2 sequence (Q13258 1-359): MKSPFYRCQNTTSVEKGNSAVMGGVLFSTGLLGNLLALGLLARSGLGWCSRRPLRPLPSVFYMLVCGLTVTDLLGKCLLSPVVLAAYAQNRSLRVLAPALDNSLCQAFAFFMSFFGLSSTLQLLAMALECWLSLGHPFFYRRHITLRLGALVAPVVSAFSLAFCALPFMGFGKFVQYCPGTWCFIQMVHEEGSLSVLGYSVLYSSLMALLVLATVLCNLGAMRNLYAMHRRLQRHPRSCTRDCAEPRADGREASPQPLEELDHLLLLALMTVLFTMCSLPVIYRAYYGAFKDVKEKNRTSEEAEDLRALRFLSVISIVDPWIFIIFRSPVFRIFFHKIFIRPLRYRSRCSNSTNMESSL
Protocol: The ability of a compound to bind to the human DP1 receptor was evaluated via a radioligand membrane binding assay using the DP1 selective synthetic ligand [^3H]BW A868C. Packed human platelets (Biological Specialty Corporation), were resuspended in 6 volumes of Hepes/HBSS buffer (10 mM Hepes, 1 mM DTT in Hanks Balanced Salt Solution (HBSS)), lysed and centrifuged at 75,000×g to pellet the membranes. Membranes were resuspended in Hepes/HBSS buffer to approximately 12 mg protein/ml. Membranes (20 μg protein/well) are incubated in 96-well plates with 2 nM [^3H]BWA868C and test compound in Assay Buffer (50 mM Hepes, 10 mM MnCl2, 1 mM EDTA, plus or minus 0.2% human serum albumin, pH 7.4) for 60 minutes at room temperature. The reactions are terminated by rapid filtration through Whatman GF/C glass fibre filter plates. The filter plates were pre-soaked in 0.33% polethylenimine for 30 minutes at room temperature then washed in Wash Buffer (50 mM Hepes, 0.5 M NaCl pH 7.4) prior to harvesting. After harvesting, the filter plates are washed 3 times with 1 ml cold Wash Buffer then dried. Scintillant is then added to the plates and the radioactivity retained on the filters is determined on a Packard TopCount (Perkin Elmer). Specific binding is determined as total radioactive binding minus non-specific binding in the presence of 10 μM BW A868C. IC50s were determined using GraphPad prism analysis of drug titration curves.

[3] = molecular target: T3, human DP2 receptor (Homo sapiens, UniProt Q9Y5Y4); test: DP2/CRTH2 radioligand binding assay using [3H]PGD2; settings: hDP2 (CRTH2) binding assay
T3 construct: expressed in transfected cells
T3 sequence (Q9Y5Y4 1-395): T1 sequence (Q9Y5Y4 1-395)
Protocol: The ability of a compound to bind to the human DP2 receptor is assessed via a radioligand binding assay using [^3H]PGD2. HEK293 cells stably expressing recombinant human DP2 are resuspended in 10 mM Hepes, 7.4 containing 1 mM DTT, lysed and centrifuged at 75,000×g to pellet the membranes. The membranes are resuspended in 10 mM Hepes, 7.4 containing 1 mM DTT and 10% glycerol to approximately 5 mg protein/ml. Membranes (2-10 μg protein/well) are incubated in 96-well plates with 1 nM [^3H]PGD2 and test compound in Assay Buffer (50 mM Hepes, 10 mM MnCl2, 1 mM EDTA, plus or minus 0.2% human serum albumin, pH 7.4) for 60 minutes at room temperature. The reactions are terminated by rapid filtration through Whatman GF/C glass fibre filter plates. The filter plates were pre-soaked in 0.33% polythylenimine for 30 minutes at room temperature then washed in Wash Buffer (50 mM Hepes, 0.5 M NaCl pH 7.4) prior to harvesting. After harvesting, the filter plates are washed 3 times with 1 ml cold Wash Buffer then dried. Scintillant is then added to the plates and the radioactivity retained on the filters is determined on a Packard TopCount (Perkin Elmer). Specific binding is determined as total radioactive binding minus non-specific binding in the presence of 10 μM PGD2. IC50s were determined using GraphPad prism analysis of drug titration curves.

Compound	IC50 [1] [µM]	IC50 [2] [nM]	IC50 [3] [nM]
O=C(O)Cc1cccc(Oc2ccc(-c3cccnc3)cc2CN2CCOC2=O)c1 [Compound 1-8, {3-[2-(2-Oxo-oxazolidin-3-ylmethyl)-4-pyridin-3-yl-phenoxy]-phenyl}-acetic acid]	> 1	> 1000	< 300
COc1ccc(CC(=O)O)cc1Oc1ccc(C(F)(F)F)cc1CN1CCOC1=O [Compound 1-9, {4-Methoxy-3-[2-(2-oxo-oxazolidin-3-ylmethyl)-4-trifluoromethyl-phenoxy]-phenyl}-acetic acid]	< 0.3	> 1000	< 300
CC(C(=O)O)c1cccc(Oc2ccc(C(F)(F)F)cc2CN2CCOC2=O)c1 (stereo not drawn) [Compound 1-10, 2-{3-[2-(2-Oxo-oxazolidin-3-ylmethyl)-4-trifluoromethyl-phenoxy]-phenyl}-propionic acid]	> 1	> 1000	< 300
O=C(O)Cc1cc(Oc2ccc(C(F)(F)F)cc2CN2CCOC2=O)ccc1-c1ccccc1 [Compound 1-13, {4-[2-(2-Oxo-oxazolidin-3-ylmethyl)-4-trifluoromethyl-phenoxy]-biphenyl-2-yl}-acetic acid]	0.3 to 1	< 300	< 300
COc1ccc(CC(=O)O)cc1Oc1ccc(Br)cc1CN1CCOC1=O [Compound 1-14, {3-[4-Bromo-2-(2-oxo-oxazolidin-3-ylmethyl)-phenoxy]-4-methoxy-phenyl}-acetic acid]	< 0.3	> 1000	< 300
C[C@H]1[C@@H](c2ccccc2)OC(=O)N1Cc1cc(Br)ccc1Oc1cccc(CC(=O)O)c1 [Compound 1-15, {3-[4-Bromo-2-((4S,5R)-4-methyl-2-oxo-5-phenyl-oxazolidin-3-ylmethyl)-phenoxy]-phenyl}-acetic acid]	0.3 to 1	< 300	< 300
C[C@H]1[C@@H](c2ccc(Cl)cc2)OC(=O)N1Cc1cc(Br)ccc1Oc1cccc(CC(=O)O)c1 [Compound 1-16, (3-{4-Bromo-2-[(4S,5R)-5-(4-chloro-phenyl)-4-methyl-2-oxo-oxazolidin-3-ylmethyl]-phenoxy}-phenyl)-acetic acid]	> 1	< 300	< 300
C[C@H]1[C@@H](c2cc(F)cc(F)c2)OC(=O)N1Cc1cc(Br)ccc1Oc1cccc(CC(=O)O)c1 [Compound 1-17, (3-{4-Bromo-2-[(4S,5R)-5-(3,5-difluoro-phenyl)-4-methyl-2-oxo-oxazolidin-3-ylmethyl]-phenoxy}-phenyl)-acetic acid]	< 0.3	< 300	< 300
C[C@H]1[C@@H](c2cc(C(F)(F)F)cc(C(F)(F)F)c2)OC(=O)N1Cc1cc(Br)ccc1Oc1cccc(CC(=O)O)c1 [Compound 1-18, (3-{2-[(4S,5R)-5-(3,5-Bis-trifluoromethyl-phenyl)-4-methyl-2-oxo-oxazolidin-3-ylmethyl]-4-bromo-phenoxy}-phenyl)-acetic acid]	< 0.3	< 300	< 300
C[C@H]1[C@@H](c2ccccc2)OC(=O)N1Cc1cc(-c2cncn2C)ccc1Oc1cccc(CC(=O)O)c1 [Compound 1-22, {3-[4-(3-Methyl-3H-imidazol-4-yl)-2-((4S,5R)-4-methyl-2-oxo-5-phenyl-oxazolidin-3-ylmethyl)-phenoxy]-phenyl}-acetic acid]	> 1	300 to 1000	< 300
C[C@H]1[C@@H](c2ccccc2)OC(=O)N1Cc1cc(Br)ccc1Oc1ccc(Cl)c(CC(=O)O)c1 [Compound 1-24, {5-[4-Bromo-2-((4S,5R)-4-methyl-2-oxo-5-phenyl-oxazolidin-3-ylmethyl)-phenoxy]-2-chloro-phenyl}-acetic acid]	> 1	< 300	300 to 1000
C[C@H]1[C@@H](c2ccccc2)OC(=O)N1Cc1cc(Br)ccc1Oc1ccc(C(F)(F)F)c(CC(=O)O)c1 [Compound 1-25, {5-[4-Bromo-2-((4S,5R)-4-methyl-2-oxo-5-phenyl-oxazolidin-3-ylmethyl)-phenoxy]-2-trifluoromethyl-phenyl}-acetic acid]	> 1	> 1000	300 to 1000
C[C@H]1[C@@H](c2ccccc2)OC(=O)N1Cc1cc(Br)ccc1Oc1cc(F)cc(CC(=O)O)c1 [Compound 1-26, {3-[4-Bromo-2-((4S,5R)-4-methyl-2-oxo-5-phenyl-oxazolidin-3-ylmethyl)-phenoxy]-5-fluoro-phenyl}-acetic acid]	< 0.3	< 300	< 300
C[C@H]1[C@@H](c2ccccc2)OC(=O)N1Cc1cc(Br)ccc1Oc1cc(Cl)cc(CC(=O)O)c1 [Compound 1-27, {3-[4-Bromo-2-((4S,5R)-4-methyl-2-oxo-5-phenyl-oxazolidin-3-ylmethyl)-phenoxy]-5-chloro-phenyl}-acetic acid]	< 0.3	< 300	< 300
C[C@H]1[C@@H](c2ccccc2)OC(=O)N1Cc1cc(Br)ccc1Oc1cc(CC(=O)O)cc(C(F)(F)F)c1 [Compound 1-28, {3-[4-Bromo-2-((4S,5R)-4-methyl-2-oxo-5-phenyl-oxazolidin-3-ylmethyl)-phenoxy]-5-trifluoromethyl-phenyl}-acetic acid]	< 0.3	> 1000	< 300
C[C@H]1[C@@H](c2ccccc2)OC(=O)N1Cc1cc(Br)ccc1Oc1cc(CC(=O)O)ccc1Cl [Compound 1-29, {3-[4-Bromo-2-((4S,5R)-4-methyl-2-oxo-5-phenyl-oxazolidin-3-ylmethyl)-phenoxy]-4-chloro-phenyl}-acetic acid]	> 1	> 1000	< 300
COc1ccc(CC(=O)O)cc1Oc1ccc(Br)cc1CN1C(=O)O[C@H](c2ccccc2)[C@@H]1C [Compound 1-30, {3-[4-Bromo-2-((4S,5R)-4-methyl-2-oxo-5-phenyl-oxazolidin-3-ylmethyl)-phenoxy]-4-methoxy-phenyl}-acetic acid]	0.3 to 1	> 1000	< 300
